Earlier results as cited in patent US8846083B2, “Method for the diffusion of molecules which are insoluble in an aqueous medium and composition using said method” (priority 2004, dated 2014).

Legend:
[1] = administered via the digestive tract
[2] = administered via the digestive tract; remark: listed apart in the source

Row | Structure (SMILES) | time at which the maximum concentration of the active ingredient in the blood is reached [1] [min] | duration of pharmacological effects [2]
1 | CC(C)Cc1ccc(C(C)C(=O)O)cc1 (stereo not shown) [ibuprofen] | 90 | approximately 2 hour
2 | CC(C(=O)O)c1cccc(C(=O)c2ccccc2)c1 (stereo not shown) [ketoprofen] | 75 | 1.5 hour
